The source of these data is patent US6528510B1, “HIV protease inhibitors” (Warner-Lambert Company, priority 1998, dated 2003).

Series [1] addresses T1, Recombinant HIV-1 protease (Human immunodeficiency virus type 1 group M subtype B, UniProt P04585).
T1 construct: Recombinant HIV-1 protease (>96% purity); purchased Bachem Bioscience, Inc. (King of Prussia, Pa.)
Put plainly: HIV protease assay (Ki determination, HPLC readout of substrate III cleavage). The series is classed as biochemical. Here is the method: Recombinant HIV-1 protease (>96% purity) and HIV protease substrate III (the undecapeptide H-His-Lys-Ala-Arg-Val-Leu-Nph-Glu-Ala-Nle-Ser-NH2, 97% purity) were purchased from Bachem Bioscience, Inc. (King of Prussia, Pa.).
The methods employed follow the procedures of Tummino, et al., Archives of Biochemistry and Biophysics, 1995;316:523). […] (total volume, […]). […] The final inhibitor concentrations used were 0 (0.1, 0.2, in some experiments), 0.5, 1, 2, 5, 10, 20, 50, and 100 μM. The solution was mixed, incubated for 5 minutes and the reaction quenched by addition of trifluoracetic acid, 2% final. The (leu-p-nitro-phe) bond of the substrate is cleaved by the enzyme and substrate arid products separated by reverse-phase HPLC. Absorbance was measured at 220 nm, peak areas determined, and percentage conversion to product used to calculate percentage control (=[% conversion (+inhibitor)/% conversion (−inhibitor)]×100).

Series [2] is described as follows: Mouse blood levels after oral dosing. The series is classed as in vivo, Charles River CD-1 mice. The following applies: CD-1, mouse, plasma, mice, oral dose of 25 mg/kg; for Cmax: read-out: Cmax (maximum concentration reached within the plasma); for half-life: read-out: T 1/2 (half life) (converted). As to the method:
Charles River CD-1 mice were dosed with a 25 mg/kg drug solution orally by gavage. For oral dosing the compounds were dissolved in 0.1N NaOH (20% final volume) and then 0.5% methylcellulose (80% final volume) was added. Blood was drawn and pooled from 5 mice at each time point via heart puncture and was placed in a 15 mL centrifuge tube containing heparin. The plasma stored in 200 μL aliquots at −80° C. until assayed.
Plasma was thawed at room temperature and then 400 μL of acetonitrile was added to each vial and vortexed. Following centrifugation the supernatant was removed and evaporated in a nitrogen evaporator at 48° C. Residue was then resolublized in 200 μL of a 75% water/25% CH3CN solution for HPLC analysis. HPLC analysis used a Zorbax RX-C8 column (4.6×150 mm) with a 25 mM potassium phosphate buffer with 0.1% TFA, pH 3.0. Mobile phases consisted of varying percentages of two buffer mixtures: Buffer A—90% buffer, 10% CH3CN, and Buffer B—30% buffer, 70% CH3CN.
A standard curve ranging from 0.5 to 50 μg/mL was used for each drug tested. Ten times final concentration solutions of drug in water were prepared from stock solutions of 1 mg/mL drug in DMSO. The final 1:10 dilution was then done in mouse plasma obtained from mice described above.

The nature of series [3]: Cellular toxicity in uninfected CEM cells, XTT (TC50). The following applies: human, uninfected CEM cells (lymphocyte derived). As to the method: (§1) Compound concentrations were 0.32, 1, 3.2, 10, 32, and 100 uM.
(Tetrazolium dyes change colour on reduction, which living cells bring about.)

The subject of series [4] is HIV infected lymphocyte derived CEM cells. Put plainly: Cellular infection assay in CEM cells, XTT cytopathic procedure (EC50). The following applies: for TI (therapeutic index, TC50/EC50): CEM cells; for EC50: Human immunodeficiency virus 1, CCRF-CEM, read-out: Antiviral Efficacy EC50. Here is the method:
as §1

The mark [5] stands for this setting: recombinant HIV-1 protease, read-out: Inhib of HIV Protease KI.

The structures appear in SMILES notation. Read-outs that look alike come from different tables or passages of the source.

Consider `Cc1cc(SC2=C(O)CC(CCc3ccsc3)(C(C)C)OC2=O)c(C(C)(C)C)cc1CO` (stereo not drawn) [Example 7, 3-(2-tert-Butyl-4-hydroxymethyl-5-methyl-phenylsulfanyl)-4-hydroxy-6-isopropyl-6-(2-thiophen-3-yl-ethyl)-5,6-dihydro-pyran-2-one], for which the inhibition constant Ki in series [1] (setting [5]) turned out to be 0.17 nM. In addition, in series [2], the Cmax is 40 µM and the half-life was 3.5 h. In series [3], the CC50 was determined as 110000 nM. Besides, in series [4], the “TI (therapeutic index, TC50/EC50)” value came to 366 and the EC50 came out at 300 nM.

On to `Cc1cc(SC2=C(O)CC(CCc3ccc4[nH]ccc4c3)(C(C)C)OC2=O)c(C(C)(C)C)cc1CO` (racemic) [Example 61, 3-(2-tert-Butyl-4-hydroxymethyl-5-methyl-phenylsulfanyl)-4-hydroxy-6-[2-(1H-indol-5-yl)-ethyl]-6-isopropyl-5,6-dihydro-pyran-2-one], for which, in series [1], the Ki was found to be 0.98 nM. This compound also displayed a CC50 in series [3] of 46000 nM. In addition, in series [4], the “TI (therapeutic index, TC50/EC50)” value amounted to 68 and the EC50 is 680 nM.

Regarding `Cc1cc(SC2=C(O)CC(CCc3ccc(CO)s3)(C(C)C)OC2=O)c(C(C)(C)C)cc1N` (racemic) [Example 38, 3-(4-Amino-2-tert-butyl-5-methyl-phenylsulfanyl)-4-hydroxy-6-[2-(5-hydroxymethyl-thiophen-2-yl)-ethyl]-6-isopropyl-5,6-dihydro-pyran-2-one], in series [1], the Ki came out at 0.33 nM. In addition, in series [3], the 50% cytotoxic concentration (CC50) was determined as 124000 nM. Further, in series [4], the “TI (therapeutic index, TC50/EC50)” value was found to be 113 and the EC50 turned out to be 1100 nM.

On to `Cc1cc(SC2=C(O)CC(CCC3CCCO3)(C(C)C)OC2=O)c(C(C)(C)C)cc1N` (racemic) [Example 56, 3-(4-Amino-2-tert-butyl-5-methyl-phenylsulfanyl)-4-hydroxy-6-isopropyl-6-[2-(tetrahydro-furan-2-yl)-ethyl]-5,6-dihydro-pyran-2-one], for which the Ki in series [1] came out at 11 nM. The compound further yielded a cytotoxic concentration (CC50) in series [3] of 210000 nM. For the same compound, in series [4], the “TI (therapeutic index, TC50/EC50)” value worked out at 21 and the half-maximal effective concentration (EC50) turned out to be 10000 nM.

Regarding `Cc1cc(SC2=C(O)CC(CCc3ccco3)(C(C)C)OC2=O)c(C(C)(C)C)cc1CO` (stereo not drawn) [Example 5, 3-(2-tert-Butyl-4-hydroxymethyl-5-methyl-phenylsulfanyl)-6-(2-furan-2-yl-ethyl)-4-hydroxy-6-isopropyl-5,6-dihydro-pyran-2-one], in series [1] (setting [5]), the inhibitory constant (Ki) was 0.78 nM. The compound also had a CC50 in series [3] of 190000 nM. Further, in series [4], the “TI (therapeutic index, TC50/EC50)” value stood at 253 and the EC50 is 750 nM.

`CC(C)[C@]1(CCc2ccccc2)CC(O)=C(Sc2cc3cc[nH]c3cc2C(C)(C)C)C(=O)O1` [Example 73, (S)-3-(6-tert-Butyl-1H-indol-5-yl-sulfanyl)-4-hydroxy-6-isopropyl-6-(2-phenethyl)-5,6-dihydro-pyran-2-one]: in series [1], the Ki amounted to 0.54 nM. For the same compound, in series [3], the cytotoxic concentration (CC50) is 42000 nM. In addition, in series [4], the “TI (therapeutic index, TC50/EC50)” value is listed as 69 and the EC50 is 610 nM.

Regarding `Cc1cc(SC2=C(O)CC(CCc3sccc3C)(C(C)C)OC2=O)c(C(C)(C)C)cc1N` (racemic) [Example 65, 3-(4-Amino-2-tert-butyl-5-methyl-phenylsulfanyl)-4-hydroxy-6-isopropyl-6-[2-(3-methyl-thiophen-2-yl)-ethyl]-5,6-dihydro-pyran-2-one], the Ki in series [1] was found to be 1.2 nM. The compound also yielded a half-maximal cytotoxic concentration (CC50) in series [3] of 60000 nM. In series [4], the “TI (therapeutic index, TC50/EC50)” value was determined as 54 and the EC50 was 1100 nM.

In the case of `CC(C)[C@]1(CCc2ccccc2)CC(O)=C(Sc2cc3sc(NS(C)(=O)=O)nc3cc2C(C)(C)C)C(=O)O1` [Example 79, (S)-N-[5-tert-Butyl-6-(4-hydroxy-6-isopropyl-2-oxo-6-phenethyl-5,6-dihydro-2H-pyran-3-ylsulfanyl)-benzothiazol-2-yl]-methanesulfonamide], the Ki in series [1] came out at 2.1 nM. In series [3], this compound displayed a CC50 of 125000 nM. Moreover, in series [4], the “TI (therapeutic index, TC50/EC50)” value was found to be 56 and the concentration for a half-maximal effect (EC50) came out at 2200 nM.

For `Cc1c(F)cccc1CCC1(C(C)C)CC(O)=C(Sc2cc3sc(N)nc3cc2C(C)(C)C)C(=O)O1` (racemic) [Example 84, 3-(2-Amino-5-tert-butyl-benzothiazol-6-ylsulfanyl)-6-[2-(3-fluoro-2-methyl-phenyl)-ethyl]-4-hydroxy-6-isopropyl-5,6-dihydro-pyran-2-one], the Ki in series [1] was found to be 0.8 nM. The compound further showed a 50% cytotoxic concentration (CC50) in series [3] of 93000 nM. In series [4], the “TI (therapeutic index, TC50/EC50)” value stood at 198 and the EC50 is 470 nM.

As to `Cc1cc(SC2=C(O)CC(CCc3csc(C(C)C)n3)(C(C)C)OC2=O)c(C(C)(C)C)cc1CO` (racemic) [Example 32, 3-(2-tert-Butyl-4-hydroxymethyl-5-methyl-phenylsulfanyl)-4-hydroxy-6-isopropyl-6-[2-(2-isopropyl-thiazol-4-yl)-ethyl]-5,6-dihydro-pyran-2-one], the inhibition constant (Ki) in series [1] amounted to 1.6 nM. Also, in series [3], the CC50 came to 91000 nM. In series [4], the “TI (therapeutic index, TC50/EC50)” value is recorded as 4 and the concentration for a half-maximal effect (EC50) was determined as 23000 nM.

Take `Cc1cc(SC2=C(O)CC(CCc3ccncc3)(C(C)C)OC2=O)c(C(C)(C)C)cc1CO` (stereo not drawn) [Example 1, 3-(2-tert-Butyl-4-hydroxymethyl-5-methyl-phenylsulfanyl)-4-hydroxy-6-isopropyl-6-(2-pyridin-4-yl-ethyl)-5,6-dihydro-pyran-2-one]: the inhibition constant (Ki) in series [1] (setting [5]) was found to be 1.5 nM. The same compound came in with a CC50 in series [3] of 296000 nM. Besides, in series [4], the “TI (therapeutic index, TC50/EC50)” value was determined as 197 and the EC50 worked out at 1500 nM.

With `CC(C)c1cc2nc(N)sc2cc1SC1=C(O)C[C@@](CCc2ccccc2)(C(C)C)OC1=O` [Example 14, (S)-3-(2-Amino-5-isopropyl-benzothiazol-6-ylsulfanyl)-4-hydroxy-6-isopropyl-6-phenethyl-5,6-dihydro-pyran-2-one], the inhibitory constant (Ki) in series [1] (setting [5]) was determined as 0.67 nM. The compound further displayed a half-maximal cytotoxic concentration (CC50) in series [3] of 75000 nM. Further, in series [4], the “TI (therapeutic index, TC50/EC50)” value stood at 30 and the EC50 worked out at 2500 nM.

Take `Cc1cc(SC2=C(O)CC(CCc3ccsc3)(C(C)C)OC2=O)c(C(C)(C)C)cc1N` (racemic) [Example 35, 3-(4-Amino-2-tert-butyl-5-methyl-phenylsulfanyl)-4-hydroxy-6-isopropyl-6-(2-thiophen-3-yl-ethyl)-5,6-dihydro-pyran-2-one]: in series [1], the inhibitory constant (Ki) amounted to 0.88 nM. This compound also had a cytotoxic concentration (CC50) in series [3] of 72000 nM. Besides, in series [4], the “TI (therapeutic index, TC50/EC50)” value is reported as 48 and the EC50 stood at 1500 nM.

In the case of `CC(C)C1(CCc2ccsc2)CC(O)=C(Sc2cc3sc(N)nc3cc2C(C)(C)C)C(=O)O1` (racemic) [Example 82], the inhibitory constant (Ki) in series [1] is 1.1 nM. For the same compound, the CC50 in series [3] worked out at 76000 nM. In series [4], the “TI (therapeutic index, TC50/EC50)” value was 109 and the EC50 turned out to be 700 nM.

For `CC(C)C1(CCc2ccccc2CO)CC(O)=C(Sc2sc3ccccc3c2C(C)(C)C)C(=O)O1` (stereo not drawn) [Example 22, 3-(3-tert-Butyl-benzo[b]thiophen-2-yl-sulfanyl)-4-hydroxy-6-[2-(2-hydroxymethyl-phenyl)-ethyl]-6-isopropyl-5,6-dihydro-pyran-2-one], the Ki in series [1] (setting [5]) stood at 0.85 nM. The compound further yielded a 50% cytotoxic concentration (CC50) in series [3] of 66000 nM. In addition, in series [4], the “TI (therapeutic index, TC50/EC50)” value is reported as 43 and the half-maximal effective concentration (EC50) was 1500 nM.

Regarding `Cc1cc(SC2=C(O)CC(CCc3ccoc3)(C(C)C)OC2=O)c(C(C)(C)C)cc1CO` (stereo not drawn) [Example 4, 3-(2-tert-Butyl-4-hydroxymethyl-5-methyl-phenylsulfanyl)-6-(2-furan-3-yl-ethyl)-4-hydroxy-6-isopropyl-5,6-dihydro-pyran-2-one], the inhibition constant Ki in series [1] (setting [5]) is 0.35 nM. In series [2], the Cmax turned out to be 54 µM and the half-life is 5.6 h. The compound further returned a CC50 in series [3] of 199000 nM. Besides, in series [4], the “TI (therapeutic index, TC50/EC50)” value is recorded as 199 and the EC50 is 1000 nM.

For the compound `CC(C)c1cc2ncsc2cc1SC1=C(O)C[C@@](CCc2ccc(O)cc2)(C(C)C)OC1=O` [Example 48, (S)-4-Hydroxy-6-[2-(4-hydroxy-phenyl)-ethyl]-6-isopropyl-3-(5-isopropyl-benzothiazol-6-ylsulfanyl)-5,6-dihydro-pyran-2-one], the inhibition constant Ki in series [1] stood at 0.4 nM. In addition, in series [3], the midpoint of cytotoxicity, the CC50, lay at 29000 nM. Further, in series [4], the “TI (therapeutic index, TC50/EC50)” value came to 78 and the EC50 was 370 nM.

By Ki is commonly meant the equilibrium dissociation constant of an inhibitor or competing ligand from its target. Usually CC50 stands for the concentration giving 50% cytotoxicity. Broadly, the EC50 is the concentration giving half of the maximal effect.
